The conditions of data set [1]: rat, in vivo. On the procedure:
White/white laboratory standard rats were used for the tests. In test group A, the rats were given scopolamine.
The rats were terminated by carbon-dioxide 4 h after centrifugation and the intestinal organs were examined. The presence of scopolamine or citalopram in the rat bodies was detected by spectrophotometrics and digital imaging as described in Goncalves, Diaz and Moses et al.

The test system of data set [2] is motion sickness in White/white laboratory standard rats. Put plainly: rat centrifuge motion sickness test. The data set is classed as in vivo. On the procedure: In test group A, the rats were given scopolamine.
Group B served as a control and was treated with uncoupled scopolamine and a starch matrix carrier without sugar chains.
The membrane size was 1×1 mm made out of starch. To this the labelled sugar chains were coupled and one membrane was put under the upper lip of each rat.
Three equally calibrated centrifuges were used in the test, one for each group of rats A, B, C. Each centrifuge was placed in a box having an entrance/exit through which the rats could move freely between their cage and the centrifuge box. The rats were first allowed to find their way into the centrifuge box before they were lifted up and placed in the centrifuge.
The rats were subsequently spun in the centrifuges at 3 G during 30 seconds.
After centrifugation, the ability of each group A, B, C to localize the exit in the centrifuge box and to return to the cage as well as general steadiness were observed.

Data set [3] concerns headache caused by the red wine. Put plainly: relief of red wine headache in voluntary humans. The conditions noted are these: Group A: 40 mg (1/10 of normal oral dose) bonded to a carrier according to the invention. The data set is classed as in vivo, human. How it is done: A further test was performed on voluntary humans. The test was performed on a group of 19 persons. Each test person was given 2 L of red wine without gender discrimination. The wine was consumed during 3 hours the evening before testing. The following morning the individuals were divided into two groups A and B, respectively. Group A received 40 mg ( 1/10 of a normal orally administered dose) of ibumetine bonded to a carrier according to the invention. Group B where given an empty membrane with only sugar chains and no active substance. Group A felt a total relief of the headache caused by the red wine within 5 minutes, whereas group B felt no relief at all from the bare membrane with sugar chains. Group B where therefore treated with 400 mg ibumetine by conventional oral delivery. Various degrees of relief were noted after 45 min-1 h. The test procedure is diagrammatically illustrated in FIG. 3.

[4] abbreviates: White/white laboratory standard, 4 h.

Read-outs that look alike come from different tables or passages of the source.

On to `CN(C)CCCC1(c2ccc(F)cc2)OCc2cc(C#N)ccc21` (stereo not shown) [citalopram], for which, in data set [1] (setting [4]), the “active substance in kidney or liver” value was “over 75%” and the “active substance in the brain” value is “less than 4%”. In data set [1] (4 h), the “active substance in the brain” value came to 99%, the “active substance in the kidneys” value is “less than 0.1%” and the “active substance in the liver” value is reported as “less than 0.2%”.

For `CN1[C@@H]2C[C@@H](OC(=O)[C@H](CO)c3ccccc3)C[C@H]1[C@@H]1O[C@@H]12` [scopolamine], in data set [1] (White/white laboratory standard), the “active substance in kidney or liver” value is given as “over 75%”. Further, the “active substance in the kidneys” value in data set [1] is recorded as “less than 0.1%”. In addition, the “active substance in the liver” value in data set [1] is recorded as “less than 0.2%”. Moreover, the “behaviour / signs of motion sickness after centrifugation” value in data set [2] (Group A: 1/10 of a normal dose bound by sugar chains to starch matrix, under upper lip, 3 G, 30 seconds) is listed as “no change in normal behaviour”; in data set [2] (Group B: same amount of uncoupled substance with starch matrix without sugar chains, 3 G, 30 seconds) it was “clear signs of motion sickness”. Also, the “ability to localize the exit in the centrifuge box” value in data set [2] (Group A: 1/10 of a normal dose bound by sugar chains to starch matrix, 3 G, 30 seconds) is “managed to directly locate the exit”; in data set [2] (Group B: uncoupled substance, starch matrix without sugar chains, test period of 1 h), “could not find the exit”.

In the case of `CC(C)Cc1ccc(C(C)C(=O)O)cc1` (stereo not shown) [ibumetine], the “time to total relief of the headache” value in data set [3] was at most 5 min.
